ChEMBL document CHEMBL4651402, “Screening of ~5500 FDA-approved drugs and clinical candidates for anti-SARS-CoV-2 activity” (2021)

System: SARS-CoV-2
Assay: microbe, parasite or virus in culture
Settings: Severe acute respiratory syndrome coronavirus 2, Vero C1008, 48 h

| Compound | IC50 | IC50 (read-out: pIC50 (converted)) |
| --- | --- | --- |
| CC(C)(C)c1cc2c(cc1Cl)C=C(C(=O)O)C(C(F)(F)F)O2 (stereo unspecified) | > 20 µM | > 20 µM |
| CN1CCN(CCCCN2C(=O)CN(/N=C/c3ccc(-c4ccc(Cl)cc4)o3)C2=O)CC1 [AZIMILIDE] | > 20 µM | > 20 µM |
| COc1ccc2cc([C@H](C)CO)ccc2c1 [NAPROXOL] | > 20 µM | > 20 µM |
| CCC(CO)NC(=O)[C@@H]1C=C2c3cccc4[nH]cc(c34)CC2N(C)C1 (stereo partly specified) | > 20 µM | > 20 µM |
| O=C(O)c1nn(Cc2ccc(Cl)cc2Cl)c2ccccc12 [LONIDAMINE] | > 20 µM | > 20 µM |
| CCOC(=O)C1(c2ccccc2)CCN(CCC(C#N)(c2ccccc2)c2ccccc2)CC1 [DIPHENOXYLATE] | > 20 µM | > 20 µM |
| COC(=O)C1=C(C)NC(C)=C(C(=O)OC(C)C)C1c1cccc2nonc12 (stereo unspecified) [ISRADIPINE] | > 20 µM | > 20 µM |
| CC(=O)N1CCC(=C2c3ccc(Cl)cc3CCc3cccnc32)CC1 [SCH-37370] | > 20 µM | > 20 µM |
| N#C[C@@H]1CCCN1C(=O)CNC12CC3CC(CC(O)(C3)C1)C2 [VILDAGLIPTIN] | > 20 µM | > 20 µM |
| O=C(O)CNC(=O)c1ccccc1 [HIPPURIC ACID] | > 20 µM | > 20 µM |
| C[C@@H]1N=C(N)O[C@@H]1c1ccccc1 (relative stereo) | > 20 µM | > 20 µM |
| C[C@H](CSC(=O)c1ccccc1)C(=O)N1C[C@@H](Sc2ccccc2)C[C@H]1C(=O)O [ZOFENOPRIL] | > 20 µM | > 20 µM |
| COC(=O)C1=COC(C)C2C[n+]3ccc4c([nH]c5ccccc54)c3CC12 (stereo unspecified) | > 20 µM | > 20 µM |
| Cc1nc(N2CCN(C)CC2)c2nc(-c3ccccc3Cl)n(C3CCOCC3)c2n1 [LY2828360] | > 20 µM | > 20 µM |
| CCN(CC)CCNC(=O)c1cc(Cl)c(N)cc1OC [METOCLOPRAMIDE] | > 20 µM | > 20 µM |
| O=C1[C@@H]2[C@H]3CC[C@H](C3)[C@@H]2C(=O)N1CCCCN1CCN(c2ncccn2)CC1 [TANDOSPIRONE] | > 20 µM | > 20 µM |
| CC(=O)C1CCC2C3CC[C@H]4C[C@H](O)CCC4(C)C3C(=O)CC12C (stereo partly specified) | > 20 µM | > 20 µM |
| CS(=O)(=O)OCCCCOS(C)(=O)=O [BUSULFAN] | > 20 µM | > 20 µM |
| C[C@@H]1CC(=O)NN=C1c1ccc(NN=C(C#N)C#N)cc1 [LEVOSIMENDAN] | > 20 µM | > 20 µM |
| NC1(C(=O)O)CC1 [1-Aminocyclopropane carboxylic acid] | > 20 µM | > 20 µM |
| COc1ccc2c(c1)[C@]13CCCC[C@@H]1[C@H](C2)N(C)CC3 [DEXTROMETHORPHAN] | > 20 µM | > 20 µM |
| CO[C@@H]1[C@@H](O[C@@H]2O[C@H](C)[C@@H](O[C@H]3C[C@@](C)(O)[C@@H](OC(=O)CC(C)C)[C@H](C)O3)[C@H](N(C)C)[C@H]2O)[C@@H](CC=O)C[C@@H](C)[C@@H](O)/C=C/C=C/C[C@@H](C)OC(=O)C[C@H]1OC(C)=O [JOSAMYCIN] | > 20 µM | > 20 µM |
| CCC(C(=O)NC(N)=O)c1ccccc1 (stereo unspecified) [PHENETURIDE] | > 20 µM | > 20 µM |
| Cc1nc(C2CCCCC2)c(-c2ccc(S(N)(=O)=O)c(F)c2)o1 [TILMACOXIB] | > 20 µM | > 20 µM |
| C[C@@H](N)Cc1ccccc1 [LEVAMFETAMINE] | > 20 µM | > 20 µM |

| Compound | IC50 | IC50 (read-out: pIC50 (converted)) |
| --- | --- | --- |
| CCOC(=O)[N-]c1c[n+](N2CCOCC2)no1 [MOLSIDOMINE] | > 20 µM | > 20 µM |
| CC[C@]1(O)C[C@H]2CN(CCc3c([nH]c4ccccc34)[C@@](C(=O)OC)(c3cc4c(cc3OC)N(C=O)[C@H]3[C@@](O)(C(=O)OC)[C@H](OC(C)=O)[C@]5(CC)C=CCN6CC[C@]43[C@@H]65)C2)C1 [VINCRISTINE] | > 20 µM | > 20 µM |
| O=C1CN=C(c2ccccc2)c2cc([N+](=O)[O-])ccc2N1 [NITRAZEPAM] | > 20 µM | > 20 µM |
| CCCCCCN1CCN(/C(=N/CC(C)C)c2ccccc2)CC1 | > 20 µM | > 20 µM |
| C=C1c2c(Cl)ccc(O)c2C(=O)C2=C(O)[C@]3(O)C(=O)C(C(N)=O)=C(O)[C@@H](N(C)C)[C@@H]3[C@@H](O)C12 (stereo partly specified) | > 20 µM | > 20 µM |
| CCOC(=O)c1ncc2[nH]c3cccc(OCc4ccccc4)c3c2c1COC | > 20 µM | > 20 µM |
| O=C1OC(c2ccc(O)cc2)(c2ccc(O)cc2)c2ccccc21 [PHENOLPHTHALEIN] | > 20 µM | > 20 µM |
| C=CCSCC1Nc2cc(Cl)c(S(N)(=O)=O)cc2S(=O)(=O)N1 (stereo unspecified) [ALTHIAZIDE] | > 20 µM | > 20 µM |
| Cc1ccnc2c1CCCC2C(N)=S (stereo unspecified) [ISOTIQUIMIDE] | > 20 µM | > 20 µM |
| CCC(CCC(C)C1CCC2C3CC=C4CC(OC(C)=O)CCC4(C)C3CCC12C)C(C)C (stereo unspecified) | > 20 µM | > 20 µM |
| CC(C)(Oc1ccc(CCNC(=O)c2ccc(Cl)cc2)cc1)C(=O)O [BEZAFIBRATE] | > 20 µM | > 20 µM |
| CC1=CCC2C3Cc4ccc(O)c5c4C2(CCN3C)C1O5 (stereo unspecified) | > 20 µM | > 20 µM |
| O=C(OCC(O)CO)c1ccccc1Nc1ccnc2cc(Cl)ccc12 (stereo unspecified) [GLAFENINE] | > 20 µM | > 20 µM |
| NS(=O)(=O)NCc1csc2ccccc12 | > 20 µM | > 20 µM |
| Oc1noc2c1CCNC2 [GABOXADOL] | > 20 µM | > 20 µM |
| CCS(=O)(=O)N1CCN(c2ccc(Nc3ncc(C(N)=O)c(NC4CC4)n3)cc2)CC1 [CERDULATINIB] | > 20 µM | > 20 µM |
| Cc1ccc(S(=O)(=O)NC(=O)NC2CCCCCCC2)cc1 [GLYOCTAMIDE] | > 20 µM | > 20 µM |
| OC[C@H]1O[C@@H](c2ccc(F)c(Cc3cc4ccccc4s3)c2)[C@H](O)[C@@H](O)[C@@H]1O [IPRAGLIFLOZIN] | > 20 µM | > 20 µM |
| CC(C)(C)CC(C)(C)c1ccc(OCOCCOCCO)c(Cc2cc(C(C)(C)CC(C)(C)C)cc(Cc3cc(C(C)(C)CC(C)(C)C)ccc3OCOCCOCCO)c2OCOCCOCCO)c1 | > 20 µM | > 20 µM |
| Nc1ncnc2c1ncn2[C@@H]1O[C@H](COP(=O)(O)O)[C@@H](O)[C@H]1O [ADENOSINE PHOSPHATE] | > 20 µM | > 20 µM |
| CC1(N)CCN(c2cccnc2NC(=O)c2nc(-c3ncccc3C(F)(F)F)cnc2N)CC1 [DAROVASERTIB] | > 20 µM | > 20 µM |
| CN(C)c1nc(N(C)C)nc(N(C)C)n1 [ALTRETAMINE] | > 20 µM | > 20 µM |
| CN1C2CCC1CC(OC(c1ccccc1)c1ccccc1N)C2 (stereo unspecified) | > 20 µM | > 20 µM |
| CNC(=N)NC(=O)Nc1c(C)cccc1C [LIDAMIDINE] | > 20 µM | > 20 µM |
| CC(=O)OCC(=O)[C@@]1(O)CC[C@H]2C3CCC4=CC(=O)C=CC4(C)[C@H]3C(=O)CC21C (stereo partly specified) | > 20 µM | > 20 µM |

| Compound | IC50 | IC50 (read-out: pIC50 (converted)) |
| --- | --- | --- |
| c1ccc(OCc2ccc(CCCN3CCOCC3)cc2)cc1 [FOMOCAINE] | > 20 µM | > 20 µM |
| Cc1cc(/N=C(\Nc2nccs2)NC2CCCCC2)c2ccccc2n1 [TIMEGADINE] | > 20 µM | > 20 µM |
| CN(C)CCOC(=O)C(c1ccccc1)C1(O)CCCC1 (stereo unspecified) [CYCLOPENTOLATE] | > 20 µM | > 20 µM |
| CN1CCN(C2=Nc3ccccc3Oc3ccc(Cl)cc32)CC1 [LOXAPINE] | > 20 µM | > 20 µM |
| C[C@]12CCC(=O)C=C1CC[C@@H]1[C@@H]2CC[C@@]2(C)[C@H]1CC[C@]2(C)O [METHYLTESTOSTERONE] | > 20 µM | > 20 µM |
| CN(C)CCC(c1ccc(Br)cc1)c1ccccn1 (stereo unspecified) [BROMPHENIRAMINE] | > 20 µM | > 20 µM |
| CNc1ccc(-c2ccc3cc(OC[C@H](O)CF)ccc3n2)cn1 [THK-5351] | > 20 µM | > 20 µM |
| O=C1c2ccccc2C(=O)C1c1ccc(F)cc1 [FLUINDIONE] | > 20 µM | > 20 µM |
| COc1ccc(-n2nc(CCC(=O)N(C)O)cc2-c2ccc(Cl)cc2)cc1 [TEPOXALIN] | > 20 µM | > 20 µM |
| CCCCCC1C(=O)N2C=C(c3ccccc3)c3ccccc3N2C1=O (stereo unspecified) [CINTAZONE] | > 20 µM | > 20 µM |
| O=c1c(O)cc([C@H]2Oc3cc(O)cc(O)c3C[C@H]2O)cc2c([C@H]3Oc4cc(O)cc(O)c4C[C@H]3O)cc(O)c(O)c12 [THEAFLAVIN] | > 20 µM | > 20 µM |
| C[C@H](CCC(=O)O)[C@H]1CC[C@H]2[C@@H]3[C@H](O)CC4C[C@H](O)CC[C@]4(C)[C@H]3CC[C@]12C (stereo partly specified) | > 20 µM | > 20 µM |
| Cn1c([N+](=O)[O-])cnc1COC(N)=O [RONIDAZOLE] | > 20 µM | > 20 µM |
| CC[C@]12C=CCN3CCC4(c5ccc(OC)cc5N(C)[C@H]4[C@](O)(C(=O)OC)[C@@H]1OC(C)=O)C32 (stereo partly specified) | > 20 µM | > 20 µM |
| COCC(=O)Nc1c(I)c(C(=O)NCC(O)CO)c(I)c(C(=O)N(C)CC(O)CO)c1I (stereo unspecified) [IOPROMIDE] | > 20 µM | > 20 µM |
| CC(=O)CC(c1ccccc1)c1c(O)c2ccccc2oc1=O (stereo unspecified) [WARFARIN] | > 20 µM | > 20 µM |
| CC(=O)NC[C@H]1CN(c2ccc(N3CCOCC3)c(F)c2)C(=O)O1 [LINEZOLID] | > 20 µM | > 20 µM |
| OC[C@@H](O)[C@@H](O)[C@H](O)[C@@H](O)CO [SORBITOL] | > 20 µM | > 20 µM |
| N[C@@H](CC(=O)N1CCn2c(nnc2C(F)(F)F)C1)Cc1cc(F)c(F)cc1F [SITAGLIPTIN] | > 20 µM | > 20 µM |
| CSc1ccc(C(=O)/C=C/c2cc(C)c(OC(C)(C)C(=O)O)c(C)c2)cc1 [ELAFIBRANOR] | > 20 µM | > 20 µM |
| CC(C)c1ccc(C(=O)NCCOc2ccc(C(=O)O)cc2)cc1 | > 20 µM | > 20 µM |
| CC(=O)Nc1nnc(S(N)(=O)=O)s1 [ACETAZOLAMIDE] | > 20 µM | > 20 µM |
| COc1ccc([C@@H]2CC(=O)c3c(O)cc(O)cc3O2)cc1O [HESPERETIN] | > 20 µM | > 20 µM |
